# Legend:
# [1] = target: T1, recombinant human Cox-1 (r-hu Cox-1, PGHS-1) (Homo sapiens, UniProt P23219); experiment: Recombinant human PGHS-1 (r-hu Cox-1) enzyme assay, PGE2 by EIA; format: biochemical
# T1 construct: made in house; host or cells: baculovirus/Sf9 insect cells (microsomes)
# Description: (§1) To compare the mean responses of the treatment groups, analysis of variance was applied. Percent inhibition values were determined by comparing the individual treatment mean values to the mean of the control group. Linear regression was used to estimate IC50's/ED50's in appropriate assays.
# (§2) EIA reagents for prostaglandin determination were purchased from Perseptive Diagnostics, (Cambridge, Mass.). Prostaglandin E2 (PGE2) levels in lavage fluids were determined after the samples were dried under nitrogen and reconstituted with assay buffer. PGE2 levels in enzyme assays or cell culture media were measured against standards prepared in the same milieu. The immunoassays were conducted as recommended by the manufacturer. The EIA was conducted in 96 well microtiter plates (Nunc Roskilde, Denmark) and optical density was measured using a microplate reader (Vmax, Molecular Devices Corp., Menlo Park, Calif.).
# (§3) Inhibition of prostaglandin biosynthesis in vitro was evaluated using recombinant human Cox-1 (r-hu Cox-1) and Cox-2 (r-hu Cox-2) enzyme assays. […] The reaction was allowed to run for 2.5 minutes at room temperature prior to quenching with HCl and neutralization with NaOH. PGE2 production in the presence and absence of the drug was determined by EIA analysis. The EIA was conducted in 96 well microtiter plates (Nunc Roskilde, Denmark) and optical density was measured using a microplate reader (Vmax, Molecular Devices Corp., Menlo Park, Calif.). EIA reagent for prostaglandin determination were purchased from Perseptive Diagnostics (Cambridge, Mass.). PGE2 levels were measured against standards prepared in the same milieu. The immunoassays were conducted as recommended by the manufacturer.
# (§4) The compounds are designated by the Example Number. […] Values for Cox-2 inhibition that are parenthetical indicate IC50 values.
# [2] = target: T2, recombinant human Cox-2 (r-hu Cox-2, PGHS-2) (Homo sapiens, UniProt P35354); experiment: Recombinant human PGHS-2 (r-hu Cox-2) enzyme assay, PGE2 by EIA; format: biochemical; conditions: for IC50: read-out: r-hu COX2 IC50 (parenthetical values)
# T2 construct: made in house; host or cells: baculovirus/Sf9 insect cells (microsomes)
# T2 sequence (P35354 18-604): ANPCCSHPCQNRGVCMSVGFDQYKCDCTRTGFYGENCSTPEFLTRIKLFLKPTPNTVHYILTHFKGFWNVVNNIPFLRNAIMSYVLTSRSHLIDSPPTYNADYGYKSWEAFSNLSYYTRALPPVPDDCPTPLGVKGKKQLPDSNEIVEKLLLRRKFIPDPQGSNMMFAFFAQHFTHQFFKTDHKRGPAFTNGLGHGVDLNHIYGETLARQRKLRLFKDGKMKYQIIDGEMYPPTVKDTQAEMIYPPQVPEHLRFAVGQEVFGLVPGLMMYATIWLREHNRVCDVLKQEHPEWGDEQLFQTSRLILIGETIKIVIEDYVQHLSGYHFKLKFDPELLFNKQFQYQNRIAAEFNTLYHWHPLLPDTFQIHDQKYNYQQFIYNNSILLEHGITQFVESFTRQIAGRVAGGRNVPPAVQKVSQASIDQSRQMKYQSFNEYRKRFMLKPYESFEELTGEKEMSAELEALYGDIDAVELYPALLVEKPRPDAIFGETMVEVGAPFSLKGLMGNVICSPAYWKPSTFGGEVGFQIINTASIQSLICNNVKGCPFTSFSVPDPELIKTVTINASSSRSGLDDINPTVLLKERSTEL
# Description: as §1, §2, §3, §4
# [3] = system: IL-1β induced PGE2 production in human amnionic WISH cells; experiment: IL-1β Induced PGE2 Production in WISH Cells; format: cell-based; conditions: IL-1β 18 hour
# Description: as §2
# Human amnionic WISH cells were grown to 80% confluence in 48 well plates. Following removal of the growth medium and two washings with Gey's Balanced Salt Solution, 5 ng IL-1β/ml (UBI, Lake Placid, N.Y.) was added to the cells with or without test compound in DMSO (0.01% v/v) in Neuman-Tytell Serumless Medium (GIBCO, Grand Island, N.Y.). Following an 18 hour incubation to allow for the maximal induction of PGHS-2, the conditioned medium was removed and assayed for PGE2 content by EIA anylysis as described above.
# WISH cell values indicate percent inhibition at the particular dose level.
# [4] = at 100 μM, read-out: r-hu COX1 percent inhibition
# [5] = at 100 nM, read-out: r-hu COX2 percent inhibition
# T1 sequence (P23219 24-599): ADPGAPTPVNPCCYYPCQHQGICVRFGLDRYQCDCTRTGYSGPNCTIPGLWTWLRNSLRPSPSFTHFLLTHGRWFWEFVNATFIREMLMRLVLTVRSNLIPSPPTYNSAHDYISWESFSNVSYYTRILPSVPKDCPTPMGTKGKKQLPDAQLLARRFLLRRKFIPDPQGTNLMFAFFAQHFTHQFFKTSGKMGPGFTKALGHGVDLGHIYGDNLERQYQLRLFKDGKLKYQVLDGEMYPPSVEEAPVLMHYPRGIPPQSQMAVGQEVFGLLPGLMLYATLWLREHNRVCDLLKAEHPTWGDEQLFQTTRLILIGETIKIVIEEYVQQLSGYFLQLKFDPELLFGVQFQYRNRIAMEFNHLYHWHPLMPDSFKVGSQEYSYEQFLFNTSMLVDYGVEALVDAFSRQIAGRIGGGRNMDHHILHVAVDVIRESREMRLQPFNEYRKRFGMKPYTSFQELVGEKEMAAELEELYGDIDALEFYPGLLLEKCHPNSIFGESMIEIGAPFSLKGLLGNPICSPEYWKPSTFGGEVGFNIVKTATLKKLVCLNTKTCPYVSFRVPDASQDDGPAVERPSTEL
compound,measurement,setting,value
CC(C)(C)c1coc2c(-c3ccc(F)cc3)c(-c3ccc(S(N)(=O)=O)cc3)nn12 [Example 55],r-hu COX1 percent inhibition,[1]; at 10 μM,99 @ 10%
same,r-hu COX2 percent inhibition,[2]; at 100 nM,88 @ 100%
1-(4-Fluorophenyl)-2-{[4-(4-fluorophenyl)-1-methyl-5-(4-(methylsulphonyl)phenyl)-1H-pyrazol-3-yl]oxy}ethan-1-one and; 1-(4-Fluorophenyl)-2-{[4-(4-fluorophenyl)-1-methyl-3-(4-(methylsulphonyl)phenyl)-1H-pyrazol-5-yl]oxy}ethan-1-one [Example 35],WISH percent inhibition,[3]; at 0.01 (nM),38 @ 0.01%
same,WISH percent inhibition,[3]; at 0.1 (nM),95 @ 0.1%
"CCn1nc(OCC(=O)c2cccs2)c(-c2ccc(F)cc2)c1-c1ccc(S(C)(=O)=O)cc1 [Example 21, 2-[(1-Ethyl-4-(4-fluorophenyl)-5-(4-(methylsulphonyl)phenyl)-1H-pyrazol-3-yl)oxy]-1-(2-thienyl)ethan-1-one]",inhibition at 100 µM,[1]; [4],3%
same,IC50,[2],31 nM
same,melting point,,163 to 164 °C
"C=CCn1nc(OCC(=O)c2cccs2)c(-c2ccc(F)cc2)c1-c1ccc(S(C)(=O)=O)cc1 [Example 22, 2-[(1-Allyl-4-(4-fluorophenyl)-5-(4-(methylsulphonyl)phenyl)-1H-pyrazol-3-yl)oxy]-1-(2-thienyl)ethan-1-one]",inhibition at 100 µM,[1]; [4],0%
same,IC50,[2],60 nM
same,melting point,,146 to 148 °C
"CCn1nc(OCC(=O)C(C)(C)C)c(-c2ccc(F)cc2)c1-c1ccc(S(C)(=O)=O)cc1 [Example 27, 1-[(1-Ethyl-4-(4-fluorophenyl)-5-(4-(methylsulphonyl)phenyl)-1H-pyrazol-3-yl)oxy]-3,3-dimethylbutan-2-one]",inhibition at 100 µM,[1]; [4],0%
same,IC50,[2],5 nM
same,melting point,,144 to 146 °C
"CS(=O)(=O)c1ccc(-c2c(-c3ccc(F)cc3)c(OCc3ccc(F)cc3)nn2Cc2ccc(F)cc2)cc1 [Example 8, 4-(4-fluorophenyl)-5-(4-(methylsulphonyl)phenyl)-1-(4-fluorobenzyl)-3-((4-fluorobenzyl)oxy)-1H-pyrazole]",inhibition at 100 µM,[1]; [4],29%
same,inhibition at 10 µM,"[2]; at 10000 nM, read-out: r-hu COX2 percent inhibition",48%
"CS(=O)(=O)c1ccc(-c2c(-c3ccc(F)cc3)c(OCc3ccccc3)nn2Cc2ccccc2)cc1 [Example 7, 4-(4-Fluorophenyl)-5-(4-(methylsulphonyl)phenyl)-3-benzyloxy-1-benzyl-1H-pyrazole]",inhibition at 100 µM,[1]; [4],26%
same,inhibition at 0.1 µM,[2]; [5],42%
same,melting point,,174 to 175 °C
"CS(=O)(=O)c1ccc(-c2nn3c(c2-c2ccc(F)cc2)OCC=CC3)cc1 [Example 4, 3-(4-Fluorophenyl)-2-(4-methylsulponylphenyl)-5,8-dihydropyrazolo[5,1-b][1,3]oxazepine]",r-hu COX1 percent inhibition,[1]; at 100 μM,12 @ 100%
same,r-hu COX2 percent inhibition,[2]; at 10000 nM,62 @ 10000%
"CS(=O)(=O)c1ccc(-c2nn3c(c2-c2ccc(F)cc2)Oc2ccccc2C3)cc1 [Example 6, 3-(4-Fluorophenyl)-2-(4-(methylsulphonyl)phenyl)-5H-pyrazolo[1,5-b][1,3]-benzoxazine]",r-hu COX1 percent inhibition,[1]; at 100 μM,25 @ 100%
same,r-hu COX2 percent inhibition,[2]; at 100 nM,82 @ 100%
"CCn1nc(OCC(=O)C(C)(C)C)c(-c2ccc(F)cc2)c1-c1ccc(S(N)(=O)=O)cc1 [Example 29, 1-[(1-Ethyl-4-(4-fluorophenyl)-5-(4-(aminosulphonyl)phenyl)-1H-pyrazol-3-yl)oxy]-3,3-dimethylbutan-2-one]",inhibition at 100 µM,[1]; [4],54%
same,inhibition at 0.1 µM,[2]; [5],55%
same,melting point,,196 to 198 °C
"CS(=O)(=O)c1ccc(-c2c(-c3ccc(F)cc3)c(OCC(=O)c3cccs3)nn2CC(=O)c2cccs2)cc1 [Example 20A, 2-{4-(4-Fluorophenyl)-5-(4-(methylsulphonyl)phenyl)-3-[2-(2-thienyl)-2-oxoethoxy]-1H-pyrazol-1-yl}-1-(2-thienyl)ethan-1-one]",inhibition at 10 µM,"[1]; at 10 μM, read-out: r-hu COX1 percent inhibition",81%
same,inhibition at 0.1 µM,[2]; [5],38%
same,melting point,,136 to 138 °C
CCC(=O)COc1nn(CC(=O)CC)c(-c2ccc(S(C)(=O)=O)cc2)c1-c1ccc(F)cc1 [Example 34],WISH percent inhibition,[3]; at 1 (nM),62 @ 1%
"CCn1nc(OC2CSCCC2=O)c(-c2ccc(F)cc2)c1-c1ccc(S(C)(=O)=O)cc1 (stereo not drawn) [Example 24, 3-[(1-Ethyl-4-(4-fluorophenyl)-5-(4-(methylsulphonyl)phenyl)-1H-pyrazol-3-yl)oxy]tetrahydro-4H-thiopyran-4-one]",inhibition at 100 µM,[1]; [4],20%
same,inhibition at 0.1 µM,[2]; [5],37%
same,melting point,,210 to 211 °C
"C=CCOc1nn(CC=C)c(-c2ccc(S(C)(=O)=O)cc2)c1-c1ccc(F)cc1 [Example 9, 1-allyl-3-(allyloxy)-4-(4-fluorophenyl)-5-(4-(methylsulphonyl)phenyl)-1H-pyrazole]",inhibition at 100 µM,[1]; [4],36%
same,inhibition at 1 µM,"[2]; at 1000 nM, read-out: r-hu COX2 percent inhibition",62%
"C=CCn1nc(Oc2ccccc2)c(-c2ccc(F)cc2)c1-c1ccc(S(C)(=O)=O)cc1 [Example 14, 1-Allyl-4-Fluorophenyl-5-(4-(methylsulphonyl)phenyl)-3-phenoxy-1H-pyrazole]",r-hu COX1 percent inhibition,[1]; at 100 μM,45 @ 100%
same,r-hu COX2 percent inhibition,[2]; at 10000 nM,37 @ 10000%
"CS(=O)(=O)c1ccc(-c2[nH]nc(OC3CCCCC3=O)c2-c2ccc(F)cc2)cc1 (stereo not drawn) [Example 15, 2-{[4-(4-Fluorophenyl)-5-(4-methylsulphonylpheny)-1H-pyrazol-3-yl]oxy}cyclohexanone]",r-hu COX1 percent inhibition,[1]; at 10 μM,69 @ 10%
same,r-hu COX2 percent inhibition,[2]; at 100 nM,47 @ 100%
"Cc1cc(-c2coc3c(-c4ccc(F)cc4)c(-c4ccc(S(C)(=O)=O)cc4)nn23)ccc1Cl [Example 47, 3-(4-Chloro-3-methylphenyl)-7-(4-fluorophenyl)-6-(4-(methylsulphonyl)phenyl)pyrazolo[5,1-b][1,3]oxazole]",melting point,,202 to 205 °C
"CCn1nc(OCC(=O)c2ccc(F)cc2)c(-c2ccc(F)cc2)c1-c1ccc(OC)cc1 [Example 18, 2-{[1-Ethyl-5-(4-methoxyphenyl)-4-(4-fluorophenyl)-1H-pyrazol-3-yl]oxy}-1-(4-fluorophenyl)ethan-1-one]",inhibition at 100 µM,[1]; [4],7%
same,inhibition at 0.1 µM,[2]; [5],50%
same,melting point,,170 to 171 °C
"CS(=O)(=O)c1ccc(-c2nn3c(c2-c2ccc(F)cc2)OCCCC3)cc1 [Example 2, 3-(4-Fluorophenyl)-2-(4-(methylsulphonyl)phenyl)-5,6,7,8-tetrahydropyrazolo[5,1-b][1,3]oxazepine]",melting point,,167 to 168 °C
"CS(=O)(=O)c1ccc(-c2nn3c(-c4ccc(F)cc4)coc3c2-c2ccc(F)cc2)cc1 [Example 36B, 3,7-Bis(4-fluorophenyl)-6-(4-(methylsulphonyl)phenyl)pyrazolo[5,1-b][1,3]oxazole]",melting point,,200 to 202 °C
"Cc1c(C#N)oc2c(-c3ccc(F)cc3)c(-c3ccc(S(N)(=O)=O)cc3)nn12 [Example 59, 6-(4-(Aminosulphonyl)phenyl)-2-cyano-7-(4-Fluorophenyl)-3-methyl-pyrazolo[5,1-b][1,3]oxazole]",melting point,,231 to 232 °C

# Source: patent publication US6472416B1, “Sulfonylphenylpyrazole compounds useful as COX-2 inhibitors” (Abbott Laboratories, priority 1999, dated 2002)
